Where only a bound is given, the exact number is not on record here.

For orientation: EC50 means the concentration at which the effect is half-maximal.

For this assay, the target named is T1, human thyroid receptor beta ligand-binding domain (THR-beta) (Homo sapiens, UniProt P10828).
T1 sequence (P10828 217-461 limits assumed): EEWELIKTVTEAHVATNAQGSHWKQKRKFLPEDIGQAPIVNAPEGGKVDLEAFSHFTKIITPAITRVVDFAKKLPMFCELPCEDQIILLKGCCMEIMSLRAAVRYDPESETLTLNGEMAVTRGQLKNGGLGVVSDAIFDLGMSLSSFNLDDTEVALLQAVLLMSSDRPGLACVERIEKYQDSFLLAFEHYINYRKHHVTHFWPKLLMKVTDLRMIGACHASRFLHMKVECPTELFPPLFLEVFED
Nature of the assay: THR Biochemical Assay (Assay 1): TR-FRET thyroid receptor beta coactivator assay. The following applies: TR-FRET SRC2-2 coactivator recruitment, GST-tagged THR-beta LBD 1 nM, 1 hr at rt; read-out: Assay 1 (EC50, THR-beta agonist activity). The source says: THR Biochemical Assay (Assay 1)
The TR-FRET thyroid receptor beta coactivator assay is to be used. The assay uses a terbium-labeled anti-GST antibody, a glutathione-S-transferase (GST) tagged human thyroid receptor, beta or alpha, ligand-binding domain (LBD), and a fluorescein labeled SRC2-2 coactivator peptide. The antibody interacts with the LBD, where the agonist will also bind, resulting in increased affinity for the SRC2-2 coactivator peptide causing energy transfer of the acceptor fluorophore and a FRET emission shift from 495 to 520 nm. The energy transfer is detected as an increase in the fluorescence emission of the fluorescein acceptor, and a decrease in the fluorescence emission of the terbium donor. The assay is to be performed in a 384-well black plate in a final volume of 20 μL. Serial dilution of various test agonists will be performed in DMSO (1% final DMSO concentration) and added to the test plate. Thyroid receptor beta LBD will usually be added to the plate at a final concentration of 1 nM, followed by the mixture of the fluorescein labeled SRC2-2 coactivator peptide, and the terbium-labeled anti-GST antibody at final concentrations of 200 nM and 2 nM respectively. The assay will often be incubated for 1 hr at rt protected from light. The TR-FRET will then be measured on a Victor multilabel reader (Perkin Elmer) using an excitation wavelength of 340 nm with emission filters of 495 nm and 520 nm. The assay will be quantified by expressing a ratio (520:495) of the intensities, and the resulting activation curves; EC50 values are to be generated using a sigmoidal dose response (variable slope) equation in GraphPad™ Prism 8.0.
Turning to `CNC(=O)c1cc(Oc2c(Cl)cc(NC(=O)c3noc(=O)[nH]3)cc2Cl)c[nH]c1=O` [Example 28, N-(3,5-dichloro-4-((5-(methylcarbamoyl)-6-oxo-1,6-dihydropyridin-3-yl)oxy)phenyl)-5-oxo-4,5-dihydro-1,2,4-oxadiazole-3-carboxamide], the EC50 fell in the range of 1000 to 25000 nM.

As for `Nc1nn(-c2cc(Cl)c(Oc3ccc(=O)n(C4CCC4)c3)c(Cl)c2)c(=O)[nH]c1=O` [Example 30, 6-amino-2-(3,5-dichloro-4-((1-cyclobutyl-6-oxo-1,6-dihydropyridin-3-yl)oxy)phenyl)-1,2,4-triazine-3,5(2H,4H)-dione], the EC50 was < 50 nM.

As to `CC(C)n1cc(Oc2c(Cl)cc(NC(=O)c3noc(=O)[nH]3)cc2Cl)ccc1=O` [Compound 6, N-(3,5-dichloro-4-((1-isopropyl-6-oxo-1,6-dihydropyridin-3-yl)oxy)phenyl)-5-oxo-4,5-dihydro-1,2,4-oxadiazole-3-carboxamide], the EC50 is 50 to 250 nM.

As to `Cc1cc(Oc2c(Cl)cc(-n3nc(N)c(=O)[nH]c3=O)cc2Cl)cn(C(C)C)c1=O` [Example 19, 6-amino-2-(3,5-dichloro-4-((1-isopropyl-5-methyl-6-oxo-1,6-dihydropyridin-3-yl)oxy)phenyl)-1,2,4-triazine-3,5(2H,4H)-dione], the EC50 is < 50 nM.

For `CC1CCc2c(Oc3c(Cl)cc(-n4nc(C#N)c(=O)[nH]c4=O)cc3Cl)ccc(=O)n21` (stereo not shown) [Example 35, 2-(3,5-dichloro-4-((3-methyl-5-oxo-1,2,3,5-tetrahydroindolizin-8-yl)oxy)phenyl)-3,5-dioxo-2,3,4,5-tetrahydro-1,2,4-triazine-6-carbonitrile], the half-maximal effective concentration (EC50) is < 50 nM.

Consider `CC(C)c1cc(Oc2c(Cl)cc(NC(=O)c3noc(=O)[nH]3)cc2Cl)c[nH]c1=O` [Compound 5, N-(3,5-dichloro-4-((5-isopropyl-6-oxo-1,6-dihydropyridin-3-yl)oxy)phenyl)-5-oxo-4,5-dihydro-1,2,4-oxadiazole-3-carboxamide], for which the EC50 is < 50 nM.

On to `CC(n1cc(Oc2c(Cl)cc(-n3nc(N)c(=O)[nH]c3=O)cc2Cl)ccc1=O)C(F)(F)F` (stereo not shown) [Example 32, 6-amino-2-(3,5-dichloro-4-((6-oxo-1-(1,1,1-trifluoropropan-2-yl)-1,6-dihydropyridin-3-yl)oxy)phenyl)-1,2,4-triazine-3,5(2H,4H)-dione], for which the EC50 lay within 50 to 250 nM.

Turning to `CC(C)n1cc(Oc2c(Cl)cc(-n3nc(C#N)c(=O)[nH]c3=O)cc2Cl)ccc1=O` [Compound 7, 2-(3,5-dichloro-4-((1-isopropyl-6-oxo-1,6-dihydropyridin-3-yl)oxy)phenyl)-3,5-dioxo-2,3,4,5-tetrahydro-1,2,4-triazine-6-carbonitrile], the EC50 was < 50 nM.

As for `CC1CCc2c(Oc3c(Cl)cc(-n4nc(N)c(=O)[nH]c4=O)cc3Cl)ccc(=O)n21` (stereo not shown) [Example 36, 6-amino-2-(3,5-dichloro-4-((3-methyl-5-oxo-1,2,3,5-tetrahydroindolizin-8-yl)oxy)phenyl)-1,2,4-triazine-3,5(2H,4H)-dione], the EC50 was < 50 nM.

For `CC(C)c1cc(Oc2c(Cl)cc(-c3nn(C)c(=O)[nH]c3=O)cc2Cl)c[nH]c1=O` [Compound 10, 6-(3,5-dichloro-4-((5-isopropyl-6-oxo-1,6-dihydropyridin-3-yl)oxy)phenyl)-2-methyl-1,2,4-triazine-3,5(2H,4H)-dione], the concentration for a half-maximal effect (EC50) fell in the range of 50 to 250 nM.

As to `CC(C)c1cc(Oc2c(Cl)cc(NC(=O)C(=O)O)cc2Cl)c[nH]c1=O` [Compound 4, 2-((3,5-dichloro-4-((5-isopropyl-6-oxo-1,6-dihydropyridin-3-yl)oxy)phenyl)amino)-2-oxoacetic acid], the EC50 fell in the range of 50 to 250 nM.

For the molecule `CC1CCc2c(Oc3c(Cl)cc(-n4nc(N)c(=O)[nH]c4=O)cc3Cl)ccc(=O)n21` (single isomer, unassigned) [Example 37, 6-amino-2-(3,5-dichloro-4-((3-methyl-5-oxo-1,2,3,5-tetrahydroindolizin-8-yl)oxy)phenyl)-1,2,4-triazine-3,5(2H,4H)-dione], the EC50 was < 50 nM.

As to `CC(C)n1cc(Oc2c(Cl)cc(-n3nc(N)c(=O)[nH]c3=O)cc2Cl)cc(Cl)c1=O` [Example 23, 6-amino-2-(3,5-dichloro-4-((5-chloro-1-isopropyl-6-oxo-1,6-dihydropyridin-3-yl)oxy)phenyl)-1,2,4-triazine-3,5(2H,4H)-dione], the EC50 was in the range of 50 to 250 nM.

On to `Cc1cc(-n2nc(N)c(=O)[nH]c2=O)cc(C)c1Cc1c[nH]c(=O)c(C(C)C)c1` [Example 33, 6-amino-2-(4-((5-isopropyl-6-oxo-1,6-dihydropyridin-3-yl)methyl)-3,5-dimethylphenyl)-1,2,4-triazine-3,5(2H,4H)-dione], for which the EC50 fell in the range of 250 to 1000 nM.

Turning to `Nc1nn(-c2cc(Cl)c(Oc3c[nH]c(=O)c(C4CCC4)c3)c(Cl)c2)c(=O)[nH]c1=O` [Example 24, 6-amino-2-(3,5-dichloro-4-((5-cyclobutyl-6-oxo-1,6-dihydropyridin-3-yl)oxy)phenyl)-1,2,4-triazine-3,5(2H,4H)-dione], the EC50 is < 50 nM.

In the case of `CC(C)n1cc(Oc2c(Cl)cc(-n3nc(N)c(=O)[nH]c3=O)cc2Cl)cc(F)c1=O` [Example 22, 6-amino-2-(3,5-dichloro-4-((5-fluoro-1-isopropyl-6-oxo-1,6-dihydropyridin-3-yl)oxy)phenyl)-1,2,4-triazine-3,5(2H,4H)-dione], the EC50 fell in the range of 50 to 250 nM.

On to `CC1CCc2c(Oc3c(Cl)cc(-n4nc(N)c(=O)[nH]c4=O)cc3Cl)ccc(=O)n21` (single isomer, unassigned) [Example 38, 6-amino-2-(3,5-dichloro-4-((3-methyl-5-oxo-1,2,3,5-tetrahydroindolizin-8-yl)oxy)phenyl)-1,2,4-triazine-3,5(2H,4H)-dione], for which the EC50 was 50 to 250 nM.

In the case of `CC1CCc2c(Oc3c(Cl)cc(-n4nc(C#N)c(=O)[nH]c4=O)cc3Cl)c[nH]c(=O)c21` (stereo not shown) [Example 34, 2-(3,5-Dichloro-4-((7-methyl-1-oxo-2,5,6,7-tetrahydro-1H-cyclopenta[c]pyridin-4-yl)oxy)phenyl)-3,5-dioxo-2,3,4,5-tetrahydro-1,2,4-triazine-6-carbonitrile], the EC50 fell in the range of 250 to 1000 nM.

For the molecule `CC(C)c1cc(Oc2c(Cl)cc(-n3nc(N)c(=O)[nH]c3=O)cc2Cl)c[nH]c1=O` [Compound 1, 6-amino-2-(3,5-dichloro-4-((5-isopropyl-6-oxo-1,6-dihydropyridin-3-yl)oxy)phenyl)-1,2,4-triazine-3,5(2H,4H)-dione], the EC50 is < 50 nM.

Take `Nc1nn(-c2cc(Cl)c(Oc3ccc(=O)n(C4CC4)c3)c(Cl)c2)c(=O)[nH]c1=O` [Example 31, 6-amino-2-(3,5-dichloro-4-((1-cyclopropyl-6-oxo-1,6-dihydropyridin-3-yl)oxy)phenyl)-1,2,4-triazine-3,5(2H,4H)-dione]: the EC50 lay within 50 to 250 nM.

Regarding `Cc1c(Oc2c(Cl)cc(-n3nc(N)c(=O)[nH]c3=O)cc2Cl)c[nH]c(=O)c1C(C)C` [Example 18, 6-amino-2-(3,5-dichloro-4-((5-isopropyl-4-methyl-6-oxo-1,6-dihydropyridin-3-yl)oxy)phenyl)-1,2,4-triazine-3,5(2H,4H)-dione], the EC50 was < 50 nM.

On to `CC(C)c1cc(Oc2c(Cl)cc(-n3nc(N)c(=O)[nH]c3=O)cc2Cl)cn(C)c1=O` [Example 14, 6-amino-2-(3,5-dichloro-4-((5-isopropyl-1-methyl-6-oxo-1,6-dihydropyridin-3-yl)oxy)phenyl)-1,2,4-triazine-3,5(2H,4H)-dione], for which the EC50 is < 50 nM.

Regarding `Nc1nn(-c2cc(Cl)c(Oc3c[nH]c(=O)c(C(=O)NC4CC(F)(F)C4)c3)c(Cl)c2)c(=O)[nH]c1=O` [Example 27, 5-(4-(6-Amino-3,5-dioxo-4,5-dihydro-1,2,4-triazin-2(3H)-yl)-2,6-dichlorophenoxy)-N-(3,3-difluorocyclobutyl)-2-oxo-1,2-dihydropyridine-3-carboxamide], the EC50 was 250 to 1000 nM.

Consider `CN(C)c1cc(Oc2c(Cl)cc(-n3nc(N)c(=O)[nH]c3=O)cc2Cl)c[nH]c1=O` [Compound 13, 6-amino-2-(3,5-dichloro-4-((5-(dimethylamino)-6-oxo-1,6-dihydropyridin-3-yl)oxy)phenyl)-1,2,4-triazine-3,5(2H,4H)-dione], for which the EC50 is 250 to 1000 nM.

Turning to `CC(C)c1cc(Oc2c(Cl)cc(-n3ncc(=O)[nH]c3=O)cc2Cl)c[nH]c1=O` [Compound 3, 2-(3,5-dichloro-4-((5-isopropyl-6-oxo-1,6-dihydropyridin-3-yl)oxy)phenyl)-1,2,4-triazine-3,5(2H,4H)-dione], the EC50 lay in the range of 50 to 250 nM.
